Results reported in PMC5830761 (Royal Society Open Science, 2018).

Key:
human A1 receptors = target: T1, human A1 receptors (Homo sapiens, UniProt P30542); assay: Radioligand binding to human A1 AR ([3H]CCPA), CHO cell membranes; settings: mean ± SEM; for Ki: CHO cells expressing human A1AR, radioligand [3H]CCPA, read-out: Ki hA1AR
T1 sequence (P30542 1-326): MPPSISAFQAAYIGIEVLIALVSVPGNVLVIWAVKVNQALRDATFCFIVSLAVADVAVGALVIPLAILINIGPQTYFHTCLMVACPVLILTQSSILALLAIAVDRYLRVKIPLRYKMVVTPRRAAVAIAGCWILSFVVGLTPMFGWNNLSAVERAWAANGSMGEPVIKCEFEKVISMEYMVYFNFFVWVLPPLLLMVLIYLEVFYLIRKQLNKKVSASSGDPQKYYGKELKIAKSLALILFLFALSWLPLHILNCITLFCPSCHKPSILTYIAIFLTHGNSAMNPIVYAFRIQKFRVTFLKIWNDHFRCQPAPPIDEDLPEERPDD
Description: (§1) CHO (Chinese hamster ovary) cells expressing the recombinant human ARs^2 were cultured in DMEM supplemented with 10% fetal bovine serum, 100 units/mL penicillin, 100 µg/mL streptomycin, 2 µmol/mL glutamine, and 800 µg/mL geneticin. Cells were harvested by trypsinization. After homogenization and suspension, cells were centrifuged at 500 g for 10 min, and the pellet was resuspended in 50 mM Tris-HCl buffer (pH 8.0) containing 10 mM MgCl2, 1 mM EDTA, and 0.1 mg/mL CHAPS. The suspension was homogenized with an electric homogenizer for 10 s and was then recentrifuged at 20000 g for 20 min at 4 °C. […] The protein concentration was measured using the Bradford assay.^3
(§2) Human A1 and A2A receptors: For binding to human A1 receptors, [^3H]CCPA (1 nM) was incubated with membranes (40 µg/tube) from CHO cells stably expressing human A1 receptors at 25 °C for 60 min in 50 mM Tris-HCl buffer (pH 7.4; MgCl2, 10 mM) in a total assay volume of 200 µL. Nonspecific binding was determined using 10 µM of CPA. For human A2A receptor binding, membranes (20 µg/tube) from HEK-293 cells stably expressing human A2A receptors were incubated with 15 nM [^3H]CGS21680 at 25 °C for 60 min in 200 µL of 50 mM Tris-HCl, pH 7.4, containing 10 mM MgCl2. NECA (10 µM) was used to define nonspecific binding. Reaction was terminated by filtration with GF/B filters.

human A2A receptors = target: T2, human A2A receptors (Homo sapiens, UniProt P29274); assay: Radioligand binding to human A2A AR ([3H]CGS21680); settings: cells expressing human A2AAR; radioligand [3H]CGS21680; mean ± SEM; read-out: Ki hA2AAR
T2 construct: expressed in transfected cells
Description: as §1, §2

human A3 receptor = target: T3, human A3 receptor (Homo sapiens, UniProt P0DMS8); assay: Competitive radioligand binding to human A3 AR ([125I]I-AB-MECA), CHO cell membranes; settings: CHO cells expressing human A3AR; radioligand [125I]I-AB-MECA; mean ± SEM; read-out: Ki hA3AR
T3 construct: expressed in transfected cells; host or cells: CHO cells, membranes
T3 sequence (P0DMS8 1-318): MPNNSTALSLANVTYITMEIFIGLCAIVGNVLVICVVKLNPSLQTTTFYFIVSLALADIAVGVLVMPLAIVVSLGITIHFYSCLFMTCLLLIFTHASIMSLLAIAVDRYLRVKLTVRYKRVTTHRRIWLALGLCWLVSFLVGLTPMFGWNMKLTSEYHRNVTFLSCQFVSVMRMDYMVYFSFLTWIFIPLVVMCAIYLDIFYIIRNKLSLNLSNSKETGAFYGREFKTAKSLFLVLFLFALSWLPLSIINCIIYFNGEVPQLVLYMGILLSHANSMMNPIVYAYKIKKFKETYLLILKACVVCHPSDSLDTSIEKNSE
Description: as §1, with “CHAPS.” for “CHAPS. The suspension was homogenized with an electric homogenizer for 10 s and was then recentrifuged at 20000 g for 20 min at 4 °C.”
Human A3 receptor: For competitive binding assay, each tube contained 100 µL of membrane suspension (20 µg protein), 50 µL of [^125I]I-AB-MECA (0.5 nM), and 50 µL of increasing concentrations of the nucleoside derivative in Tris-HCl buffer (50 mM, pH 7.4) containing 10 mM MgCl2 and 1 mM EDTA. Nonspecific binding was determined using 10 µM of Cl-IB-MECA in the buffer. The mixtures were incubated at 25 °C for 60 min. Binding reactions were terminated by filtration through Whatman GF/B filters under reduced pressure using a MT-24 cell harvester (Brandell, Gaithersburgh, MD). Filters were washed three times with 9 mL of ice-cold buffer. Radioactivity was determined in a Beckman 5500B γ-counter.

T2 sequence (P29274 whole entry): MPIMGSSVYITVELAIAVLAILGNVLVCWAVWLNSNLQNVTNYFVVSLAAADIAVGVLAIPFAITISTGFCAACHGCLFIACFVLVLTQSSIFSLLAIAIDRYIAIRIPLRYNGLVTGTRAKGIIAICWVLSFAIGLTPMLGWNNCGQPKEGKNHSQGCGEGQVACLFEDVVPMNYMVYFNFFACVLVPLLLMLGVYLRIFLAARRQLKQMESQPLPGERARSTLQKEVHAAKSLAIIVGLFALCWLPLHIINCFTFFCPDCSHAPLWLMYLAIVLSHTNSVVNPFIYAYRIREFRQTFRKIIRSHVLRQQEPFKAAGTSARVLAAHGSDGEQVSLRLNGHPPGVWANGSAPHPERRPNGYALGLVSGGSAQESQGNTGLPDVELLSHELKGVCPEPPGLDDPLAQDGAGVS

inhibition at 10 µM (human A1 receptors; at 10 µM, weak binding, corresponding to IC50 ≥ 10 µM, [3H]CCPA, read-out: % inhibition at 10 µM hA1AR) | Ki (human A2A receptors) | Ki (human A3 receptor) | Ki (human A1 receptors) | Structure (SMILES)
47% | 2770 ± 500 nM | 679 ± 149 nM | – | Cn1cc(CCOc2nc(N)c3ncn([C@@H]4O[C@H](CO)[C@@H](O)[C@H]4O)c3n2)c2ccc(Br)cc21 [compound 9]
– | 380 ± 81 nM | 532 ± 144 nM | 217 ± 57 nM | Nc1nc(OCCc2cn(Cc3ccccc3)c3cc(Br)ccc23)nc2c1ncn2[C@@H]1O[C@H](CO)[C@@H](O)[C@H]1O [compound 10]
– | 262 ± 192 nM | 177 ± 43 nM | 230 ± 26 nM | Cn1cc(CCCOc2nc(N)c3ncn([C@@H]4O[C@H](CO)[C@@H](O)[C@H]4O)c3n2)c2ccc(Br)cc21 [compound 13, 2-(6"-Bromo-1"-Methyl-3"-indolylpropoxy)adenosine]
– | 371 ± 79 nM | 491 ± 143 nM | 152 ± 49 nM | Nc1nc(OCCCc2cn(Cc3ccccc3)c3cc(Br)ccc23)nc2c1ncn2[C@@H]1O[C@H](CO)[C@@H](O)[C@H]1O [compound 14, 2-(6"-Bromo-1"-Benzyl-3"-indolylpropoxy)adenosine]
